Columns and labels:
Format in all cases: in vivo, human
Gal-1 = assay: Plasma biomarker Gal-1; settings: for Galectin-1 raw data, Mean (SD) / Gal-1 least square means % baseline±SEM: IPF patients
Description: (§1) All patients, investigators, sites and study sponsor personnel were blinded to the study group assignments throughout the study. Patients underwent study-specific assessments on days 2, 3, 7, 14 and 15, and a post-study assessment was carried out 26–30 days after the last day of the study period. Assessments included vital signs (supine blood pressure, pulse, oxygen saturation, oral temperature and respiratory rate), spirometry, 12-lead ECG, physical examination, laboratory safety screen (haematology, biochemistry, urinalysis and urinary drugs of abuse screen) and blood sampling for PK measurements. All adverse events and concomitant medications were recorded from the time of the screening visit until the post-study follow-up visit. BAL was performed at day −1 (24 h before the first dose) and at day 14 (2 h after the last dose). The BAL procedure was performed as per international guidelines. Briefly, 240 mL of 0.9% saline at room temperature was instilled in 40 mL aliquots into the right middle lobe and aspirated by suction after each aliquot.
(§2) BAL cells were separated from fluid by centrifugation, and cells were collected, stained with antibodies (supplementary material) and then fixed before analysis using a LSR Fortessa flow cytometer (Becton Dickinson, Franklin Lakes, NJ, USA). Data were analysed using FlowJo software (Tree Star, Ashland, OR, USA). Macrophages were identified as having high side scatter properties and human leukocyte antigen-DR positivity. Gal-3 expression (mean fluorescence intensity) was determined from the macrophage gate (supplementary figures S1 and S2). […] Samples were analysed by magnetic Luminex assay (R&D Systems, Minneapolis, MN, USA) or ELISA.
(§3) For part 2 of the study, placebos were combined from the three dose-specific cohorts into a pooled control group (n=9). For alveolar macrophage Gal-3 expression and the plasma biomarkers, ANCOVA was performed for percentage of baseline ((day 14/day 1)×100). The ANCOVA model included effects for treatment group and baseline (day 1) value. […] An additional analysis including dose as a continuous covariate was also performed. The Pearson correlation coefficient (r) and associated p-value were calculated for percentage of baseline and day 14 values between plasma biomarkers and alveolar macrophage Gal-3 expression. […] The analysis is exploratory and there was no pre-planned adjustment for multiple testing; the study was not powered for this. Alveolar macrophage Gal-3 expression was considered the primary exploratory analysis with the pre-selected biomarkers secondary. A Bonferroni correction for multiple testing of the secondary end-points comparing the 10 mg group with placebo gives a critical value of 0.0063. Data are presented as the difference in least square means with 95% confidence interval and p-value unless otherwise stated. All analyses were performed using SAS version 9.4 (SAS Institute, Cary, NC, USA). […]

PDGF-AA = assay: Plasma biomarker PDGF-AA; settings: for PDGF-AA raw data, Mean (SD) / PDGF-AA least square means % baseline±SEM: IPF patients
Description: as §1, §2, §3

BAL cells = assay: BAL cell classification and quantification (flow cytometry); settings: any dose groups
Description: Dickinson, NJ, USA). Data were analysed using FlowJo software (Becton Dickinson, NJ, […]
identify cell populations based on surface marker expression. The antibodies used were Gal-3- […]
Biolegend except Gal-3-FITC which was from Cedarlane. Macrophages were identified as having high side scatter properties and HLA-DR positivity. Gal-3 expression (mean fluorescence intensity, MFI) was determined from the macrophage gate. Macrophage subsets […]
Plasma pharmacodynamic biomarkers
Secreted], CCL18 [pulmonary and activation-regulated chemokine], CCL26 [eotaxin], […]
A disease relevance score was
(supplementary table S2).
BAL cell classification and quantification
CD163 and CD206 expression (supplemental figure S2). […]
following treatment with TD139 in the high dose group.

SP-D = assay: Plasma biomarker SP-D; settings: for SP-D raw data, Mean (SD) / SP-D least square means % baseline±SEM: IPF patients
Description: as §1, §2, §3

[1] = TD139 concentration in BAL alveolar macrophages, ELF and plasma
Description: Full plasma PK profiles were conducted on days 1 (first day of dosing) and 14 (last day of dosing). […] Standard noncompartmental methods were applied to derive PK parameters using Phoenix WinNonlin version 6.3 (Certara, Sheffield, UK). […] Drug compartment measurements in BAL alveolar macrophages and fluid were determined as described previously.

CCL18 (PARC) = assay: Plasma biomarker CCL18; settings: IPF patients
Description: as §1, §2, §3

patients with IPF = assay: Safety and tolerability (TEAEs), part 2, once-daily inhaled dose for 14 days
Text: Following completion of dosing for the final subject in each dosing cohort, an interim dose review meeting was held with a safety committee consisting of the principal investigator, medical monitor, pharmacokineticist and statistician to review the safety, tolerability and PK data (study design schematic shown in figure 1). The study statistician and pharmacokineticist were unblinded at the end of each cohort in order to conduct the analyses required for dose review decisions. The primary end-point was the safety and tolerability of single or multiple doses of TD139 in healthy subjects or IPF patients, respectively.

[2] = IPF patients, inhaled 0.3 mg once daily 14 days
[3] = IPF patients, inhaled 3 mg once daily 14 days
[4] = IPF patients, inhaled 10 mg once daily 14 days

In the case of `OC[C@H]1O[C@@H](S[C@@H]2O[C@H](CO)[C@H](O)[C@H](n3cc(-c4cccc(F)c4)nn3)[C@H]2O)[C@H](O)[C@@H](n2cc(-c3cccc(F)c3)nn2)[C@H]1O` [TD139], the “Gal-1 difference in least square means % baseline (95% CI)” value (Gal-1; 10 mg vs placebo, ANCOVA) is reported as −16.6 (−60.0–26.7) % baseline, the “Galectin-1 raw data, Mean (SD)” value (Gal-1; Day 14, 0.3 mg) is reported as 41996.4 (7357.87) pg/ml and the “Galectin-1 raw data, Mean (SD)” value (Gal-1; Day 14, 3 mg) is reported as 60416.7 (17348.65) pg/ml. For the same molecule, the “Galectin-1 raw data, Mean (SD)” value (Gal-1; Day 14, 10 mg) was 48409.7 (21339.06) pg/ml, the “Gal-1 least square means % baseline±SEM” value (Gal-1; day 14, 0.3 mg once daily) was 93.1±16.7 % baseline and the “Gal-1 least square means % baseline±SEM” value (Gal-1; day 14, 3 mg once daily) was 120.2±16.6 % baseline. The “Gal-1 least square means % baseline±SEM” value (Gal-1; day 14, 10 mg once daily) was 89.7±16.6 % baseline, the “PDGF-AA difference in least square means % baseline (95% CI)” value (PDGF-AA; 10 mg vs placebo, ANCOVA) was −129.7 (−295.3–35.8) % baseline and the “PDGF-AA raw data, Mean (SD)” value (PDGF-AA; Day 14, 0.3 mg) was 1299.7 (754.57) pg/ml. The “PDGF-AA raw data, Mean (SD)” value (PDGF-AA; Day 14, 3 mg) was 4075.9 (5511.46) pg/ml, the “PDGF-AA raw data, Mean (SD)” value (PDGF-AA; Day 14, 10 mg) was 2556.7 (987.79) pg/ml and the “PDGF-AA least square means % baseline±SEM” value (PDGF-AA; day 14, 0.3 mg once daily) was 61.7±60.6 % baseline. For the same molecule, the “PDGF-AA least square means % baseline±SEM” value (PDGF-AA; day 14, 3 mg once daily) was 117.1±62.1 % baseline, the “PDGF-AA least square means % baseline±SEM” value (PDGF-AA; day 14, 10 mg once daily) was 83.6±61.2 % baseline and the “abundance or frequencies of CD4+ or CD8+ T cells, Tregs, NK, NKT, B cells, neutrophils or monocytes in BAL” value (BAL cells) was “no change in the abundance or frequencies”. The “SP-D difference in least square means % baseline (95% CI)” value (SP-D; 10 mg vs placebo, ANCOVA) was 4.0 (−41.0–49.1) % baseline, the “SP-D raw data, Mean (SD)” value (SP-D; Day 14, 0.3 mg) was 38987.4 (10734.36) pg/ml and the “SP-D raw data, Mean (SD)” value (SP-D; Day 14, 3 mg) was 91473.6 (43437.58) pg/ml. For the same molecule, the “SP-D raw data, Mean (SD)” value (SP-D; Day 14, 10 mg) was 30347 (3552.88) pg/ml, the “SP-D least square means % baseline±SEM” value (SP-D; day 14, 0.3 mg once daily) was 109.6±16.6 % baseline and the “SP-D least square means % baseline±SEM” value (SP-D; day 14, 3 mg once daily) was 111.7±18.2 % baseline. For the same molecule, the “SP-D least square means % baseline±SEM” value (SP-D; day 14, 10 mg once daily) was 118.7±17.3 % baseline, the “correlation between concentrations of TD139 in ELF and AMs (r)” value ([1]; all active cohorts, day 14) was 0.89 (95% CI 0.70–0.96) and the “correlation between concentrations of TD139 in plasma (total) and AMs (r)” value ([1]; all active cohorts, day 14) was 0.89 (95% CI 0.65–0.96). For the same molecule, the Kp at 2 h ([1]; human, inhaled, concentration of TD139 in BAL macrophages (lung) relative to systemic exposure (blood), IPF patients, 2 h post-dosing on day 14) was > 567, the “CCL18 (PARC) raw data, Mean (SD)” value (CCL18 (PARC); Day 14, 0.3 mg) was 79733.8 (25166.88) pg/ml and the “CCL18 (PARC) raw data, Mean (SD)” value (CCL18 (PARC); Day 14, 3 mg) was 73022.7 (33487.12) pg/ml. For the same molecule, the “CCL18 (PARC) raw data, Mean (SD)” value (CCL18 (PARC); Day 14, 10 mg) was 53456.8 (11339.99) pg/ml, the “CCL18 (PARC) least square means % baseline±SEM” value (CCL18 (PARC); day 14, 0.3 mg once daily) was 89.6±11.8 % baseline and the “CCL18 (PARC) least square means % baseline±SEM” value (CCL18 (PARC); day 14, 3 mg once daily) was 98.9±12.0 % baseline. The “CCL18 (PARC) least square means % baseline±SEM” value (CCL18 (PARC); day 14, 10 mg once daily) was 74.6±11.8 % baseline, the “Subjects reporting ≥1 TEAE: Serious TEAE” value (patients with IPF; [2]) was 0 n (%) and the “Subjects reporting ≥1 TEAE: TEAE” value (patients with IPF; [2]) was 4 (80.0) n (%). The “Subjects reporting ≥1 TEAE: TEAE leading to withdrawal” value (patients with IPF; [2]) was 0 n (%), the “Subjects with TEAE by relationship to study IMP: Almost definite” value (shortened to “Subjects with TEAE … Almost definite”) (patients with IPF; [2]) was 0 n (%) and the “Subjects with TEAE by relationship to study IMP: Possible” value (from here on “Subjects with TEAE … Possible”) (patients with IPF; [2]) was 1 (20.0) n (%). The “Subjects with TEAE by relationship to study IMP: Probable” value (from here on “Subjects with TEAE … Probable”) (patients with IPF; [2]) was 0 n (%), the “Subjects with TEAE by relationship to study IMP: Unlikely” value (from here on “Subjects with TEAE … Unlikely”) (patients with IPF; [2]) was 1 (20.0) n (%) and the “Subjects with TEAE by relationship to study IMP: Unrelated” value (from here on “Subjects with TEAE … Unrelated”) (patients with IPF; [2]) was 2 (40.0) n (%). The “Subjects with TEAE by severity: Mild” value (patients with IPF; [2]) was 2 (40.0) n (%), the “Subjects with TEAE by severity: Moderate” value (patients with IPF; [2]) was 2 (40.0) n (%) and the “Subjects with TEAE by severity: Severe” value (patients with IPF; [2]) was 0 n (%). For the same molecule, the TEAEs (patients with IPF; [2]) was 9 n, the “Subjects reporting ≥1 TEAE: Serious TEAE” value (patients with IPF; [3]) was 0 n (%) and the “Subjects reporting ≥1 TEAE: TEAE” value (patients with IPF; [3]) was 5 (100.0) n (%). For the same molecule, the “Subjects reporting ≥1 TEAE: TEAE leading to withdrawal” value (patients with IPF; [3]) was 0 n (%), the “Subjects with TEAE … Almost definite” value (patients with IPF; [3]) was 0 n (%) and the “Subjects with TEAE … Possible” value (patients with IPF; [3]) was 1 (20.0) n (%). The “Subjects with TEAE … Probable” value (patients with IPF; [3]) was 0 n (%), the “Subjects with TEAE … Unlikely” value (patients with IPF; [3]) was 1 (20.0) n (%) and the “Subjects with TEAE … Unrelated” value (patients with IPF; [3]) was 3 (60.0) n (%). For the same molecule, the “Subjects with TEAE by severity: Mild” value (patients with IPF; [3]) was 4 (80.0) n (%), the “Subjects with TEAE by severity: Moderate” value (patients with IPF; [3]) was 1 (20.0) n (%) and the “Subjects with TEAE by severity: Severe” value (patients with IPF; [3]) was 0 n (%). The TEAEs (patients with IPF; [3]) was 10 n, the “Subjects reporting ≥1 TEAE: Serious TEAE” value (patients with IPF; [4]) was 1 (20.0) n (%) and the “Subjects reporting ≥1 TEAE: TEAE” value (patients with IPF; [4]) was 4 (80.0) n (%). For the same molecule, the “Subjects reporting ≥1 TEAE: TEAE leading to withdrawal” value (patients with IPF; [4]) was 0 n (%), the “Subjects with TEAE … Almost definite” value (patients with IPF; [4]) was 0 n (%) and the “Subjects with TEAE … Possible” value (patients with IPF; [4]) was 0 n (%). The “Subjects with TEAE … Probable” value (patients with IPF; [4]) was 0 n (%), the “Subjects with TEAE … Unlikely” value (patients with IPF; [4]) was 2 (40.0) n (%) and the “Subjects with TEAE … Unrelated” value (patients with IPF; [4]) was 2 (40.0) n (%). For the same molecule, the “Subjects with TEAE by severity: Mild” value (patients with IPF; [4]) was 1 (20.0) n (%), the “Subjects with TEAE by severity: Moderate” value (patients with IPF; [4]) was 2 (40.0) n (%) and the “Subjects with TEAE by severity: Severe” value (patients with IPF; [4]) was 1 (20.0) n (%). The TEAEs (patients with IPF; [4]) was 13 n, the “safety and tolerability” value (patients with IPF; IPF patients, multiple inhaled doses up to 10 mg) was “safe and well tolerated” and the “TEAE profile, biochemistry, haematology, vital signs or 12-lead ECG data” value (patients with IPF; part 2, IPF patients) was “no treatment- or dose-related trends observed”. For the same molecule, the “patients with a TEAE considered possibly related to the study drug” value (patients with IPF; part 2, diarrhoea and dysgeusia/oropharyngeal pain) was “two”.

Reference: publication PMC8156151 (The European Respiratory Journal, 2021)
